Reference: PubChem BioAssay (NCI)
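The compound was tested at five concentrations on cells cultured in 96-well plates, with a 48-hour exposure period. The concentration for 50% growth inhibition is given as GI50. TGI: total growth inhibition.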

Key:
Experiment in all cases: NCI-60 cell line screen, 48 h; in the data active = GI50 below about 0.43 µM; inactive = the rest
786-0 renal = tested on: 786-0 renal
A498 renal = tested on: A498 renal
A549 NSCLC = tested on: A549 NSCLC
ACHN renal = tested on: ACHN renal
CAKI-1 renal = tested on: CAKI-1 renal
COLO 205 colon = tested on: COLO 205 colon
DU-145 prostate = tested on: DU-145 prostate
EKVX NSCLC = tested on: EKVX NSCLC
HCC-2998 colon = tested on: HCC-2998 colon
HCT-116 colon = tested on: HCT-116 colon
HCT-15 colon = tested on: HCT-15 colon
HL-60(TB) leukemia = tested on: HL-60(TB) leukemia
HOP-62 NSCLC = tested on: HOP-62 NSCLC
HOP-92 NSCLC = tested on: HOP-92 NSCLC
HS 578T breast = tested on: HS 578T breast
HT29 colon = tested on: HT29 colon
IGROV1 ovarian = tested on: IGROV1 ovarian
K-562 leukemia = tested on: K-562 leukemia
KM12 colon = tested on: KM12 colon
LOX IMVI melanoma = tested on: LOX IMVI melanoma
M14 melanoma = tested on: M14 melanoma
MALME-3M melanoma = tested on: MALME-3M melanoma
MCF7 breast = tested on: MCF7 breast
MDA-MB-231 breast = tested on: MDA-MB-231 breast
MDA-MB-435 = tested on: MDA-MB-435
MOLT-4 leukemia = tested on: MOLT-4 leukemia
NCI-H226 lung = tested on: NCI-H226 lung
NCI-H23 lung = tested on: NCI-H23 lung

O=c1c2[nH]ccc2nc2n1CCS2
> 100 µM: TGI (786-0 renal) | TGI (A498 renal) | TGI (A549 NSCLC) | TGI (ACHN renal) | TGI (CAKI-1 renal) | TGI (COLO 205 colon) | TGI (DU-145 prostate) | TGI (EKVX NSCLC) | TGI (HCC-2998 colon) | TGI (HCT-116 colon) | TGI (HCT-15 colon) | TGI (HL-60(TB) leukemia) | TGI (HOP-62 NSCLC) | TGI (HOP-92 NSCLC) | TGI (HS 578T breast) | TGI (HT29 colon) | TGI (IGROV1 ovarian) | TGI (K-562 leukemia) | TGI (KM12 colon) | TGI (LOX IMVI melanoma) | TGI (M14 melanoma) | TGI (MALME-3M melanoma) | TGI (MCF7 breast) | TGI (MDA-MB-231 breast) | TGI (MDA-MB-435) | TGI (MOLT-4 leukemia) | TGI (NCI-H226 lung)
inactive: GI50 (786-0 renal) > 100 µM | GI50 (A498 renal) > 100 µM | GI50 (A549 NSCLC) > 100 µM | GI50 (ACHN renal) > 100 µM | GI50 (CAKI-1 renal) > 100 µM | GI50 (COLO 205 colon) > 100 µM | GI50 (DU-145 prostate) > 100 µM | GI50 (EKVX NSCLC) > 100 µM | GI50 (HCC-2998 colon) > 100 µM | GI50 (HCT-116 colon) > 100 µM | GI50 (HCT-15 colon) > 100 µM | GI50 (HL-60(TB) leukemia) 46.6 µM | GI50 (HOP-62 NSCLC) > 100 µM | GI50 (HOP-92 NSCLC) > 100 µM | GI50 (HS 578T breast) > 100 µM | GI50 (HT29 colon) > 100 µM | GI50 (IGROV1 ovarian) > 100 µM | GI50 (K-562 leukemia) > 100 µM | GI50 (KM12 colon) > 100 µM | GI50 (LOX IMVI melanoma) > 100 µM | GI50 (M14 melanoma) > 100 µM | GI50 (MALME-3M melanoma) > 100 µM | GI50 (MCF7 breast) > 100 µM | GI50 (MDA-MB-231 breast) > 100 µM | GI50 (MDA-MB-435) > 100 µM | GI50 (MOLT-4 leukemia) > 100 µM | GI50 (NCI-H226 lung) > 100 µM | GI50 (NCI-H23 lung) > 100 µM
